Entries after “also recorded” stand apart in the source; their conditions may differ.
Columns and labels:
[1] = Isothermal titration calorimetry (ITC), lipid II-containing LUVs titrated into drug; assay type: binding; parameters: dG / dH / -TdS: unit not given here
Procedure: Isothermal titration calorimetry
For isothermal titration calorimetry (ITC) measurements large unilamellar vesicles (LUVs) containing lysine-lipid II were prepared by incorporating 2 mol% of lysine-lipid II in DOPC from the stock solution. The lipids were dried under a nitrogen stream and hydrated with buffer (20 mM HEPES and 50 mM NaCl, pH 7) to a lipid-phosphate concentration of 20 mM. Finally, unilamellar vesicles were obtained after ten rounds of extrusion through 200-nm membrane filters (Whatman Nuclepore, Track-Etch Membranes). ITC experiments were performed with the Affinity ITC (TA Instruments-Waters LLC) to determine interaction between LUVs and teixobactin. […] The samples were degassed before use. […] The number of injections was 23. Experiments were performed at 37 °C and analysed using the Nano Analyze Software (TA instruments-Water LLC). All experiments were performed in triplicates. Control experiments were performed with lipid II-free DOPC LUVs. The independent model was used to determine the interaction between teixobactin and lipid II. ITC data of R4L10-teixobactin were previously published.

Gram-positive pathogens = details: cited from earlier work
Procedure: Antibiotics that use novel mechanisms are needed to combat antimicrobial resistance[1]–[3]. […] Here we unravel the mechanism of teixobactin at the atomic level using a combination of solid-state NMR, microscopy, in vivo assays and molecular dynamics simulations. […] (Fig. 4h and Extended Data Fig. 10b,c).

[2] = Confocal microscopy of GUVs doped with Atto 550-labelled lipid II; details: DOPC GUVs with 0.1 mol% Atto 550-lipid II, 1 μM teixobactin, 3 h; biological triplicates
Procedure: We used a self-assembled GUV cell, aligned with two titanium electrodes in a closed Teflon chamber (volume = 500 μl). Of 0.5 mM DOPC doped with Atto 550-labelled lipid II (0.1 mol%), 1 μl was brushed on the titanium electrodes. The GUV cell was dried under vacuum. Next, the chamber was filled with 350 μl 0.1 M sucrose solution, the electrodes dipped in and connected to a power supply of a sine wave (2.5 V; 10 Hz; 90 min). Each microscopy slide (m-slide 8 well, Ibidi) was incubated with 350 μl BSA solution (1 mg ml^−1) for 1 h. To detach the GUVs, the power supply was changed to square wave (2 V; 2 Hz; 15 min). The slides were washed once with water and 0.1 M glucose solution. The slides were immersed in 300 μl of 0.1 M glucose solution to which 50 μl of GUVs was added. […] GUVs were imaged using Zeiss LSM 880 with ×63/1.2 NA glycerol and ×100/1.2 NA oil objective lenses. The Atto 550 label appeared red upon excitation by the 560-nm laser. The brightfield was used for detection and location of the GUVs and to observe their shape. Zeiss Zen Black software was used for the analysis of the images.

[3] = source data Figure 3e, ITC, Avg of Expt 1-3
[4] = source data Figure 3e, ITC, Expt 1
[5] = source data Figure 3e, ITC, Expt 2
[6] = source data Figure 3e, ITC, Expt 3

For teixobactin, the Kd ([1]; ITC, DOPC LUVs with 2 mol% lysine-lipid II, 20 mM HEPES 50 mM NaCl pH 7, 30 μM drug, 37 °C, mean of three experiments, b18 prints ± 0.008) was 80 nM, the Kd ([1]; source data Figure 3e, ITC pH 7, 37 °C, Expt 1) was 67.4 nM and the Kd ([1]; source data Figure 3e, ITC pH 7, 37 °C, Expt 2) was 92 nM. It also gave a Kd ([1]; source data Figure 3e, ITC pH 7, 37 °C, Expt 3) of 68.9 nM, a dG [1, 3] of -42.29 and a dH [1, 3] of -35.03. The dG [1, 4] was -42.58, the dH [1, 4] was -34.03 and the dG [1, 5] was -41.78. The dH [1, 5] was -37.92, the dG [1, 6] was -42.52 and the dH [1, 6] was -33.14. The “-TdS” value ([1]; source data Figure 3e, ITC, Plot, avg) was -7.26, the “antibacterial activity (in words)” value (Gram-positive pathogens; MRSA, S. pneumoniae, vancomycin-resistant Enterococci) was “broad activity against multidrug-resistant Gram-positive pathogens” and the “bacterial killing compared with vancomycin (in words)” value (Gram-positive pathogens) was “more effective in killing bacteria than vancomycin”. For the same substance, the “resistance (in words)” value (Gram-positive pathogens) was “lack of resistance” and the “GUV oligomerization and membrane perturbation (in words)” value [2] was “formation of micron-sized teixobactin–lipid II oligomers; also recorded: pronounced concave membrane perturbations at the oligomerization sites”.

Source: article PMC9365693 (Nature, 2022)
